Measurements: ChEMBL document CHEMBL1201862, “PubChem BioAssay data set” (2004)
Active and inactive are the calls of the source.

Tests used:
[1] = biological target: Heat shock protein HSP 90-alpha (Homo sapiens, UniProt P07900); assay: Luminescence-based dose response biochemical high throughput screening assay for inhibitors of the Heat Shock Protein 90 (HSP90). [Related pubchem assays: 1831 (Summary AID.), 1846 (Confirmation screen.), 1789 (Primary screen.)]
Ephrin type-A receptor 4 = Ephrin type-A receptor 4 (Mus musculus, UniProt Q03137); assay: EphA4 ligand-binding antagonists – biochemical, colorimetric, mouse EphA4, primary screen (AID 689); format: functional
[2] = biological target: Ubiquitin carboxyl-terminal hydrolase BAP1 (Homo sapiens, UniProt Q92560); assay: inhibition of BAP1 ubiquitin hydrolase activity – biochemical, dose response (AID 714); format: functional
[3] = viability of uninfected HEp-2 cells – cell-based, HTS, cytotoxicity control for RSV inhibitor project, dose response (AID 2410); format: functional; details: human respiratory syncytial virus
[4] = biological target: Voltage-gated inwardly rectifying potassium channel KCNH2 (Homo sapiens, UniProt Q12809); assay: concentration-dependent hERG rescue from blockers – cell-based, thallium flux, dose response (AID 2121); format: ADME
[5] = biological target: Muscarinic acetylcholine receptor M1 (Rattus norvegicus, UniProt P08482); assay: concentration-dependent potentiation of ACh at M1 – cell-based, calcium mobilization, CHO-K1, ACh EC20, dose response (AID 2425); format: functional
[6] = biological target: Serine/threonine-protein phosphatase PP1-alpha catalytic subunit (Homo sapiens, UniProt P62136); assay: inhibition of protein phosphatase 1 activity – biochemical, fluorescence, dose response (AID 2394)
[7] = microbe, parasite or virus in culture; format: functional; details: Mycobacterium tuberculosis
[8] = biological target: Serine/threonine-protein phosphatase (Homo sapiens, UniProt Q9BPW0); assay: inhibition of protein phosphatase 5 activity – biochemical, fluorescence, dose response (AID 2395)
[9] = biological target: T1, Replicative DNA helicase DnaB (Mycobacterium tuberculosis, UniProt P9WMR3); assay: DnaB intein splicing inhibitors, dose response, biochemical, cell-free fluorescence (AID 449749); format: functional
T1 sequence (P9WMR3 whole entry): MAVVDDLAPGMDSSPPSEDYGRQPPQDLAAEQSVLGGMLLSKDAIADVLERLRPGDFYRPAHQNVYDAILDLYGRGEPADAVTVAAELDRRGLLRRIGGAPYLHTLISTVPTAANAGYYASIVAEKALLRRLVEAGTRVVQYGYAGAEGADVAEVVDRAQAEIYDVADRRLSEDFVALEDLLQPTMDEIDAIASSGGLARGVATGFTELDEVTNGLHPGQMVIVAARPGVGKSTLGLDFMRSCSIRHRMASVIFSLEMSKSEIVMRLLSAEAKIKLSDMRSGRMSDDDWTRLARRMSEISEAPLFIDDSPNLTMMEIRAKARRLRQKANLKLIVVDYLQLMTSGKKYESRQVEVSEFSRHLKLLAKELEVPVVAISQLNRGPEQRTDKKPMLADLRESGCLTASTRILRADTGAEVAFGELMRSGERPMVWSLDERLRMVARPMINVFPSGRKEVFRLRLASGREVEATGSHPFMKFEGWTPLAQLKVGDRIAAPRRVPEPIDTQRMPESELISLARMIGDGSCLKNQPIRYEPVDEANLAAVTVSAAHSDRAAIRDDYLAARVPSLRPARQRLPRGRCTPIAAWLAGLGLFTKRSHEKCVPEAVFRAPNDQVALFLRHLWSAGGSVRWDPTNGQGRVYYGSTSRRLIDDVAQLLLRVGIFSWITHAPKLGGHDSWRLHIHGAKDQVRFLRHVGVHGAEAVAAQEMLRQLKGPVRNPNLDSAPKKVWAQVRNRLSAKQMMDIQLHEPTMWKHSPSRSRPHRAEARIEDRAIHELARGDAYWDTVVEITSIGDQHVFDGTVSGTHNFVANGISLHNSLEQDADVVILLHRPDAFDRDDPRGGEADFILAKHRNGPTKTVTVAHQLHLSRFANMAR

[10] = biological target: T2, Apoptotic protease-activating factor 1 (Homo sapiens, UniProt O14727); format: functional
T2 sequence (O14727 whole entry): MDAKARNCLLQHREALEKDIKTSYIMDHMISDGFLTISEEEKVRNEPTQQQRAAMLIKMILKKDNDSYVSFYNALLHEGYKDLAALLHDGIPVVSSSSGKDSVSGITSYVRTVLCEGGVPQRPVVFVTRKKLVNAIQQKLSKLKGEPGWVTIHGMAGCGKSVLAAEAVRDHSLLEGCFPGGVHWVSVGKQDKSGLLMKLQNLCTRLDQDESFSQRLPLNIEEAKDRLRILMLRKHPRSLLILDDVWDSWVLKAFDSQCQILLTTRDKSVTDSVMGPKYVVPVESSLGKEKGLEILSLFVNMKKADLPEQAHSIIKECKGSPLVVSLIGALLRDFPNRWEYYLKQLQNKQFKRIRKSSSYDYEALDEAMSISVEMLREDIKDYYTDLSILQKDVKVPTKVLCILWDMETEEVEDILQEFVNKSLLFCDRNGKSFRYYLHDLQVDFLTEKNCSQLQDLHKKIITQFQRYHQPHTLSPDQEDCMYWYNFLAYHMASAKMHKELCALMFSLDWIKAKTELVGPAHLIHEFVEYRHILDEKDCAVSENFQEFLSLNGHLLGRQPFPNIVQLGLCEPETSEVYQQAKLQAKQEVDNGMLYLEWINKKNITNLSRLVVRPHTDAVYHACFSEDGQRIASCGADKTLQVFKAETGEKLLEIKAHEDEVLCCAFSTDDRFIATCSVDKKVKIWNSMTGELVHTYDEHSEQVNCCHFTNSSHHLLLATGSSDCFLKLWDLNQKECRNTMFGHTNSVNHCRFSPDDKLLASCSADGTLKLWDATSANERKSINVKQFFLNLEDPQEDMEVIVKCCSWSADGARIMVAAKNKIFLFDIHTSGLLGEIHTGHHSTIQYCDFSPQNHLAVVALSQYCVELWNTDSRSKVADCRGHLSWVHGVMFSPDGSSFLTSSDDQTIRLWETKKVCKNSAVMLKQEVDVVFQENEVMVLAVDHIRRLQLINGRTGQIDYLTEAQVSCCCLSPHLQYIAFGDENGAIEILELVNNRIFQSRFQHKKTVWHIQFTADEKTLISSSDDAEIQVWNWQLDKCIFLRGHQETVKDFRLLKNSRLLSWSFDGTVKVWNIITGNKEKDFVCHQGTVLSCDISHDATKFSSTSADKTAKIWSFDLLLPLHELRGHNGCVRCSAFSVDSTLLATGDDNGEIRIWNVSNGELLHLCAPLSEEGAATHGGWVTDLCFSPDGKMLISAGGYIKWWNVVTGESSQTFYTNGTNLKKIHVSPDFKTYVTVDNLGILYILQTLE

Protein RecA = biological target: T3, Protein RecA (Mycobacterium tuberculosis, UniProt P9WHJ3); assay: Fluorescence Cell-Free Homogeneous Dose Retest to Identify Inhibitors of RecA-Intein Splicing Activity. [Related pubchem assays (depositor defined):AID2097, AID2223, AID489010, AID492950]; format: functional
T3 sequence (P9WHJ3 whole entry): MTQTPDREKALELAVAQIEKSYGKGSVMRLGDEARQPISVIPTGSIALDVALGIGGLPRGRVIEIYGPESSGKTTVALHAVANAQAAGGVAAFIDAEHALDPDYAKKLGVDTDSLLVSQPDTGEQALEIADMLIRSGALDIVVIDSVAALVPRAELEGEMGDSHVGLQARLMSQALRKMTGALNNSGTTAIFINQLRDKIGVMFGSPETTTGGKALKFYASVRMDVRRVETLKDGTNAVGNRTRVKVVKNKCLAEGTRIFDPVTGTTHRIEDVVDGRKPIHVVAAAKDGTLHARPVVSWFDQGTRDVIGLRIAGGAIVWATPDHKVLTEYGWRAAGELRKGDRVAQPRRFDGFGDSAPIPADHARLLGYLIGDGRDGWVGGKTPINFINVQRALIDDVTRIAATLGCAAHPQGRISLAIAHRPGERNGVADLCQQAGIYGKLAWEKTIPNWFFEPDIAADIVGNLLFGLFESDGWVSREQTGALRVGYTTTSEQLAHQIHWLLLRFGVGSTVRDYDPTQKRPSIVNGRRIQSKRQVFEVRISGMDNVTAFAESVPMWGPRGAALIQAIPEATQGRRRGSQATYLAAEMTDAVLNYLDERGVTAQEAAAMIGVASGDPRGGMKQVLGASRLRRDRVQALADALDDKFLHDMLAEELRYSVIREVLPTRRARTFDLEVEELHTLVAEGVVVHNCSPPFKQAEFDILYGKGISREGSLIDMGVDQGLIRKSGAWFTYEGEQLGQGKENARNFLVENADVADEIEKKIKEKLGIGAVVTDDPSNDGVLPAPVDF

[11] = biological target: T4, Tyrosyl-DNA phosphodiesterase 2 (Homo sapiens, UniProt O95551); assay: potency against TDP2 phosphodiesterase activity – biochemical, epi absorbance, IC50, dose response (AID 743297)
T4 sequence (O95551 whole entry): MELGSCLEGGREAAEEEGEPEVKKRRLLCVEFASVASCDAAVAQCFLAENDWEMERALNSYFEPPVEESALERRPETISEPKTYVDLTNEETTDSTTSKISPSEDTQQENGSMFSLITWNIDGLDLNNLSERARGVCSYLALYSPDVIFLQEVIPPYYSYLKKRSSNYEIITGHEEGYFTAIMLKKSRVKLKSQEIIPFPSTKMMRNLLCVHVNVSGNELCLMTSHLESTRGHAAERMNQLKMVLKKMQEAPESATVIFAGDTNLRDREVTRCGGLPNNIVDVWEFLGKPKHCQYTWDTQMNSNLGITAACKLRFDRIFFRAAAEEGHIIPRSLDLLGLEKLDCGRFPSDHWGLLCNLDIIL

[12] = biological target: E3 ubiquitin-protein ligase Mdm2 (Homo sapiens, UniProt Q00987); assay: MDM2-luc reporter signal enhancers, multi-concentration potency testing, MDM2 ubiquitin-protein ligase inhibitor program, whole-cell format, luminescence detection, 384-well microplate (AID 1394); format: functional;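 also: MDM2 E3 inhibitors raise luminescence so EC50 is for signal enhancement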
[13] = biological target: T5, Low molecular weight phosphotyrosine protein phosphatase (Homo sapiens, UniProt P24666); assay: inhibition of LMPTP-A enzymatic activity – biochemical, OMFP substrate, fluorescence intensity, set 2, dose response (AID 743307); format: functional
T5 sequence (P24666 whole entry): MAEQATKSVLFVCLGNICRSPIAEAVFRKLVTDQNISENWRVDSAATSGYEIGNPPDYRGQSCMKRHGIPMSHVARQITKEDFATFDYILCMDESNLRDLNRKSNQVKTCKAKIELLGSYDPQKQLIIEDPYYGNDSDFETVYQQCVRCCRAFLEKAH

[14] = biological target: T5, Low molecular weight phosphotyrosine protein phosphatase; assay: inhibition of human LMPTP enzyme activity – biochemical, absorbance, pNPP substrate, LMPTP-A isoform, set 2, orthogonal assay, dose response (AID 743308); format: functional

Muscarinic acetylcholine receptor M1, sequence (P08482 whole entry): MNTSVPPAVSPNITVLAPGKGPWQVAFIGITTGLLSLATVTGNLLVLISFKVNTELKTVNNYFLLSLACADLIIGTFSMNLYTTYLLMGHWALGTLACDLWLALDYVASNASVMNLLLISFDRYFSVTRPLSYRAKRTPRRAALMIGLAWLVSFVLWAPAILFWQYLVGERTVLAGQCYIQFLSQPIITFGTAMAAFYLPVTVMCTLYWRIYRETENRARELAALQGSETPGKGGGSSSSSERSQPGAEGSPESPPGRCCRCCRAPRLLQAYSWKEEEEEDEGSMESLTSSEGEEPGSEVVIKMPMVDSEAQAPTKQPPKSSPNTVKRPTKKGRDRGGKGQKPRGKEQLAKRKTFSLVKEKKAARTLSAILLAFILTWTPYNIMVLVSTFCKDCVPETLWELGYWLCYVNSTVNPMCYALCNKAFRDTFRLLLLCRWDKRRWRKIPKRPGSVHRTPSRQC
E3 ubiquitin-protein ligase Mdm2, sequence (Q00987 whole entry): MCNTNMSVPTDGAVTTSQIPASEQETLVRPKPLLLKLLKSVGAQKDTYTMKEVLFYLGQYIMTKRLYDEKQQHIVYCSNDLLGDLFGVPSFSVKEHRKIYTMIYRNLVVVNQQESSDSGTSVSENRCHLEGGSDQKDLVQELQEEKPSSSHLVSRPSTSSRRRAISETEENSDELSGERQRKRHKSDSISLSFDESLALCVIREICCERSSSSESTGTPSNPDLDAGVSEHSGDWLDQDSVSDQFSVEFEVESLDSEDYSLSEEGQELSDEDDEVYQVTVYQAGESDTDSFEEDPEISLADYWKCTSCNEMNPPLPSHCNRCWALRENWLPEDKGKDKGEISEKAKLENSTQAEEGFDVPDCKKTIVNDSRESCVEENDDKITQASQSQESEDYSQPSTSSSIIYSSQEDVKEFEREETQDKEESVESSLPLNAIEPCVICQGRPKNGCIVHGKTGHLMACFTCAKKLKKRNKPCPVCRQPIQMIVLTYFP
Serine/threonine-protein phosphatase, sequence (Q9BPW0 whole entry): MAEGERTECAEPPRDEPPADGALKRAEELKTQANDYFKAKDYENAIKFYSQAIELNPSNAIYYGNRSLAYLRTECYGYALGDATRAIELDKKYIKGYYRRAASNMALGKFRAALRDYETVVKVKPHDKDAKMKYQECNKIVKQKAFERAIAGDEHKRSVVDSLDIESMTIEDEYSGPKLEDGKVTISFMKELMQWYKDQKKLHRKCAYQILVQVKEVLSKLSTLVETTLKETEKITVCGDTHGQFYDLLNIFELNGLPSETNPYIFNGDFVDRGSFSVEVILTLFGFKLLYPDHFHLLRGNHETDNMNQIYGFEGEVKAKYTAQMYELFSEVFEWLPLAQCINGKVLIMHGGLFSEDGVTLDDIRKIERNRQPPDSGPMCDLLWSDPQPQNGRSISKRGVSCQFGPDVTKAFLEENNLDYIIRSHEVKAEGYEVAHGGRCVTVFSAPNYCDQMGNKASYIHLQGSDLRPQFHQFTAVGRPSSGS
Serine/threonine-protein phosphatase PP1-alpha catalytic subunit, sequence (P62136 whole entry): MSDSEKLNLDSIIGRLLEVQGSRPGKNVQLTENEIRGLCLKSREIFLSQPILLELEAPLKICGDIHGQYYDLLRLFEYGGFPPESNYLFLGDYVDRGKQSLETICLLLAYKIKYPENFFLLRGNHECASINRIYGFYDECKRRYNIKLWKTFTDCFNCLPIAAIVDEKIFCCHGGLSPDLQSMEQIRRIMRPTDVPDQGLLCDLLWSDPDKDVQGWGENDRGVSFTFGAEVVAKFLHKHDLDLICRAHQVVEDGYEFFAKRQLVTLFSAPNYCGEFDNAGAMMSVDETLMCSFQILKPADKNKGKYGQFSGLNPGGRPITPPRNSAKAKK
Ephrin type-A receptor 4, sequence (Q03137 whole entry): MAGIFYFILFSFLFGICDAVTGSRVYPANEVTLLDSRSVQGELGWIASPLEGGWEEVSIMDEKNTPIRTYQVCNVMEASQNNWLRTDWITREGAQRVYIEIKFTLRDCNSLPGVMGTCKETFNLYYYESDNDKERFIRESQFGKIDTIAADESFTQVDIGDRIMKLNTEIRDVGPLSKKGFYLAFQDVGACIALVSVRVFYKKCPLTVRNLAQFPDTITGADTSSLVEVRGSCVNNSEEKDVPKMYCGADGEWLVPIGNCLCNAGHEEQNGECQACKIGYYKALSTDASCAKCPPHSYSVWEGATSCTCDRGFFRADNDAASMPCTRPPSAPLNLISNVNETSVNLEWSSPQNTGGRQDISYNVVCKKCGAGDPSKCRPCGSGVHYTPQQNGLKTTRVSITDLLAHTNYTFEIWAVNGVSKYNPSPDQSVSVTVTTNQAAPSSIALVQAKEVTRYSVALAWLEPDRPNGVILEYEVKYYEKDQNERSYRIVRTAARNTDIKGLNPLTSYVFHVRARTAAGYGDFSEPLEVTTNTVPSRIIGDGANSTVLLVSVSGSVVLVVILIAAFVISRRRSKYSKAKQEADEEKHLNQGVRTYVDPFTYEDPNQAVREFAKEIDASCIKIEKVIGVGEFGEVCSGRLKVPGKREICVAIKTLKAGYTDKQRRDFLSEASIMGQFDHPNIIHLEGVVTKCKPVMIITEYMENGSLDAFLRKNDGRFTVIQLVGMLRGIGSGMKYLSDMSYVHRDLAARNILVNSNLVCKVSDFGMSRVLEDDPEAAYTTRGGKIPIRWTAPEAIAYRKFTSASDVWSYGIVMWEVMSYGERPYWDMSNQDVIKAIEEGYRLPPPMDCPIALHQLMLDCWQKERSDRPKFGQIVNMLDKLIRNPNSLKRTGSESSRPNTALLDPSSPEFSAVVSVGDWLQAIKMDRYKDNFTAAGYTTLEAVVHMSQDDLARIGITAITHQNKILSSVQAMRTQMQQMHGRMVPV
Ubiquitin carboxyl-terminal hydrolase BAP1, sequence (Q92560 whole entry): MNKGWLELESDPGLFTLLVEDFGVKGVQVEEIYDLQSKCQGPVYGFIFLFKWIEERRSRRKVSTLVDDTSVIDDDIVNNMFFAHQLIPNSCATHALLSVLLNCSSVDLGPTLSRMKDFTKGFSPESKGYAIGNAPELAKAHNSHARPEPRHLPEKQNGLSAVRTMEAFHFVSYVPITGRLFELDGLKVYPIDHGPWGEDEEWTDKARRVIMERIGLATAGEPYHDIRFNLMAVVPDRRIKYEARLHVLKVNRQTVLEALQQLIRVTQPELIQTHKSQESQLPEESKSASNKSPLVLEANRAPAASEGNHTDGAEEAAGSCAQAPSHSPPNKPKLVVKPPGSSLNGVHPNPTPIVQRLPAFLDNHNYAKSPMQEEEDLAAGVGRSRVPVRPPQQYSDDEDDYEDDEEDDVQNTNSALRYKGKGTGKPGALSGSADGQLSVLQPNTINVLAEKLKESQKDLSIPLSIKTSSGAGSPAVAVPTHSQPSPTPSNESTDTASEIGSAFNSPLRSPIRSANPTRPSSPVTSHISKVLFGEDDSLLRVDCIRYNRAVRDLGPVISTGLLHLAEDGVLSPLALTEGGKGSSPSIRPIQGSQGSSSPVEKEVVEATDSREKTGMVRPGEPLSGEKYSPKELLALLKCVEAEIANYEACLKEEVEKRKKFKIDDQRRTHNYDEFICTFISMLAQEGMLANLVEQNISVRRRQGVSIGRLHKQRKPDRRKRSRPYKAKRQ
Voltage-gated inwardly rectifying potassium channel KCNH2, sequence (Q12809 whole entry): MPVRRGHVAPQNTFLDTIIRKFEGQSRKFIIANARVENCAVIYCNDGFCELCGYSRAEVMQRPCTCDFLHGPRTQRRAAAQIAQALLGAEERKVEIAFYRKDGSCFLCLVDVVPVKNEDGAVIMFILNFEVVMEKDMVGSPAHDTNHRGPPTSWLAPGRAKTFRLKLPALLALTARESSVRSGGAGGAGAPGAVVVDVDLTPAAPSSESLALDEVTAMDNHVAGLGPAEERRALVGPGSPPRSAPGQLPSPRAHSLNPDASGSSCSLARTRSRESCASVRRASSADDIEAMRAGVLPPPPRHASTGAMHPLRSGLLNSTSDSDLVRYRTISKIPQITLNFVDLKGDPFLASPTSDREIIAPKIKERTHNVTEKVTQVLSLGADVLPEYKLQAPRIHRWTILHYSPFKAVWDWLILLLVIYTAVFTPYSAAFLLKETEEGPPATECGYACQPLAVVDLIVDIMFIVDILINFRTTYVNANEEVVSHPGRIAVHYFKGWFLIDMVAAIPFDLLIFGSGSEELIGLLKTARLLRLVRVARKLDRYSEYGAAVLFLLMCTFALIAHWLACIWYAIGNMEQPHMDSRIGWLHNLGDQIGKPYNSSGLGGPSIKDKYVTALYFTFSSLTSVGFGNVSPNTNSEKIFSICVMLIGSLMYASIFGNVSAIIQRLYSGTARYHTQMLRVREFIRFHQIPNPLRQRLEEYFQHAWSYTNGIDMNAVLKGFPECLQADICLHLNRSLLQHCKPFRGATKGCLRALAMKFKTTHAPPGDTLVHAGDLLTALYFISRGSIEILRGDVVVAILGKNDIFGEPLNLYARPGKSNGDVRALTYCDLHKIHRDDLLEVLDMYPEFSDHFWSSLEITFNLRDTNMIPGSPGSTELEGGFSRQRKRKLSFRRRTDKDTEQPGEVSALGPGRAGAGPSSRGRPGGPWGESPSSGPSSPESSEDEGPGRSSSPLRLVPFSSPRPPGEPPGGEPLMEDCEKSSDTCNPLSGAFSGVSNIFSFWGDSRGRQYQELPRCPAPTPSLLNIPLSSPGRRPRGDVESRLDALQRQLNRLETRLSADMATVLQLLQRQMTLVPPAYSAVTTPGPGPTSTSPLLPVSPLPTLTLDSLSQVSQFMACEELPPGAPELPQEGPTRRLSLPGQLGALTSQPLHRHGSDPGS

With `CN(C)c1ccc(C2Nc3cccc4cccc(c34)N2)cc1` the IC50 [1] was 6.25 µM (active).

With `CCOC(=O)N1CCN(C(=O)CSc2nnc(-c3c[nH]c4ccccc34)n2CCOC)CC1` the IC50 (Ephrin type-A receptor 4) was > 100 µM (not active).

In the case of `Cc1sc(NC(=O)CSc2nnc(COc3ccc(Cl)cc3)n2C)c(C#N)c1C`, the IC50 [2] was > 50 µM (not active).

In the case of `Sc1ncnc2c1sc1nc(-c3ccccc3)c3c(c12)CCCC3`, the CC50 [3] was 16.9 µM (active) and the EC50 [4] was 1.69 µM (active).

With `Cc1cc(NC(=O)CS(=O)(=O)c2cn(Cc3cccc(-c4ccn(C)n4)c3)c3ccccc23)no1` the EC50 [5] was 3.45 µM (active).

For `O=C(/C=C/c1ccc(O)cc1)c1ccc(/N=C2\C(=O)c3ccccc3C(O)=C2N2CCCCC2)cc1`, the IC50 [6] was > 67 µM (not active), the CC50 [7] was 8.74 µM (active) and the IC50 [8] was 26.4 µM (not active). For the same compound, the AC50 [9] was > 380 µM (inactive), the IC50 [10] was 2.91 µM (active) and the EC50 (Protein RecA) was 0.707 µM (active). The IC50 [11] was > 128 µM (inactive).

For `Cn1cc/c(=N\C=C(C#N)C#N)c2ccccc21`, the EC50 [12] was 3.98 µM (not active).

In the case of `Brc1ccc2nc(-c3ccccc3)cc(NCCCN3CCCCC3)c2c1`, the IC50 [13] was > 80 µM (inactive) and the IC50 [14] was > 80 µM (inactive).
